System: skin cancer cell line A431
Assay: In vitro survival assay (MTT) for anti-skin cancer effects
Assay type: cell-based
Settings: A-431, A431 human epidermoid carcinoma cell line, 48 hours treatment, read-out: IC50 (half inhibition concentration), survival of skin cancer cells
Procedure: Inhibiting effects of skin cancer cells by cyclohexenone compounds of Antrodia camphorata from example 1 were assessed according to the anticancer-drug screening model of National Cancer Institute (NCI). The compound 4-hydroxy-2,3-dimethoxy-6-methyl-5 -(3,7,11-trimethyl-dodeca-2,6,10-trienyl)-cyclohex-2-enone from example 1 was added into the culture media of skin cancer cell line A431 to determine the survival rates. Survival of cell was analyzed using MTT assay. A431 cell line was a human epidermoid carcinoma cell line.
MTT assay is commonly used to analyze cell proliferation, survival rate of viable cells and cytotoxicity. MTT (3[4,5-dimethylthiazol-2-yl]-2,5-diphenyltetrazolium bromide) is a yellow dye which can be converted to water-insoluble purple formazan on the reductive cleavage of its tetrazolium ring by the succinate tetrazolium reductase in mitochondria of cells. The amount of formazan produced is used to detect the number of viable cells and calculate the survival rates. […]
Afterward, 2.5 mg/ml of MTT solution was added to each well and incubated in the dark for 4 hours, followed by the addition of 100 μl of lysis buffer to stop the reaction. The absorbances were measured at 570 nm with an ELISA Reader to determine the survival rates.

COC1=C(OC)C(O)C(C/C=C(\C)CC/C=C(\C)CCC=C(C)C)C(C)C1=O (stereo not shown) [formula 2, 4-hydroxy-2,3-dimethoxy-6-methyl-5-(3,7,11-trimethyl-dodeca-2,6,10-trienyl)-cyclohex-2-enone]
IC50: 0.18 µg/mL
